Measured values: PubChem BioAssay (NCI)
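Following 48 hours of exposure in 96-well plates, responses at five concentrations were used to interpolate endpoints linearly. Abbreviation: GI50, concentration required for 50% inhibition of growth. TGI marks complete inhibition of growth.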

Assays:
Experiment in all cases: NCI anticancer screen, dose series, 48 h
786-0 renal = test system: 786-0 renal
A498 renal = test system: A498 renal
A549 NSCLC = test system: A549 NSCLC
ACHN renal = test system: ACHN renal
BT-549 breast = test system: BT-549 breast
CAKI-1 renal = test system: CAKI-1 renal
CCRF-CEM leukemia = test system: CCRF-CEM leukemia
COLO 205 colon = test system: COLO 205 colon
DU-145 prostate = test system: DU-145 prostate
EKVX NSCLC = test system: EKVX NSCLC
HCC-2998 colon = test system: HCC-2998 colon
HCT-116 colon = test system: HCT-116 colon
HCT-15 colon = test system: HCT-15 colon
HL-60(TB) leukemia = test system: HL-60(TB) leukemia
HOP-62 NSCLC = test system: HOP-62 NSCLC
HOP-92 NSCLC = test system: HOP-92 NSCLC
HS 578T breast = test system: HS 578T breast
HT29 colon = test system: HT29 colon
IGROV1 ovarian = test system: IGROV1 ovarian
K-562 leukemia = test system: K-562 leukemia
KM12 colon = test system: KM12 colon
LOX IMVI melanoma = test system: LOX IMVI melanoma
M14 melanoma = test system: M14 melanoma
MALME-3M melanoma = test system: MALME-3M melanoma
MCF7 breast = test system: MCF7 breast
MDA-MB-231 breast = test system: MDA-MB-231 breast
MDA-MB-435 = test system: MDA-MB-435
MDA-MB-468 breast = test system: MDA-MB-468 breast
MOLT-4 leukemia = test system: MOLT-4 leukemia
NCI-H226 lung = test system: NCI-H226 lung
NCI-H23 lung = test system: NCI-H23 lung
NCI-H460 lung = test system: NCI-H460 lung
NCI-H522 lung = test system: NCI-H522 lung
OVCAR-3 ovarian = test system: OVCAR-3 ovarian
OVCAR-4 ovarian = test system: OVCAR-4 ovarian
OVCAR-5 ovarian = test system: OVCAR-5 ovarian
OVCAR-8 ovarian = test system: OVCAR-8 ovarian
PC-3 prostate = test system: PC-3 prostate
RPMI-8226 leukemia = test system: RPMI-8226 leukemia
RXF 393 renal = test system: RXF 393 renal
SF-268 CNS = test system: SF-268 CNS
SF-295 CNS = test system: SF-295 CNS
SF-539 CNS = test system: SF-539 CNS
SK-MEL-2 melanoma = test system: SK-MEL-2 melanoma
SK-MEL-28 melanoma = test system: SK-MEL-28 melanoma
SK-MEL-5 melanoma = test system: SK-MEL-5 melanoma
SK-OV-3 ovarian = test system: SK-OV-3 ovarian
SN12C renal = test system: SN12C renal
SNB-19 CNS = test system: SNB-19 CNS
SNB-75 CNS = test system: SNB-75 CNS
SR leukemia = test system: SR leukemia
SW-620 colon = test system: SW-620 colon
T-47D breast = test system: T-47D breast
TK-10 renal = test system: TK-10 renal
U251 CNS = test system: U251 CNS
UACC-257 melanoma = test system: UACC-257 melanoma
UACC-62 melanoma = test system: UACC-62 melanoma
UO-31 renal = test system: UO-31 renal

Question: With `N#Cc1c(-c2ccccc2Cl)cc(-c2ccc3ccccc3c2)[nH]c1=O` as the compound, how does the GI50 (786-0 renal) read?
Answer: 16.4 µM

Question: What about the TGI (786-0 renal) of the same compound?
Answer: 30.8 µM

Question: And the GI50 (A498 renal)?
Answer: 15.9 µM

Question: And the TGI (A498 renal)?
Answer: 34.3 µM

Question: And the GI50 (A549 NSCLC)?
Answer: 27.3 µM

Question: What about the TGI (A549 NSCLC) of the same compound?
Answer: > 100 µM

Question: And the GI50 (ACHN renal)?
Answer: 18.8 µM

Question: What about the TGI (ACHN renal) of the same compound?
Answer: 39.9 µM

Question: And the GI50 (BT-549 breast)?
Answer: 25.2 µM

Question: And the TGI (BT-549 breast)?
Answer: 85.9 µM

Question: What about the GI50 (CAKI-1 renal) of the same compound?
Answer: 15.9 µM

Question: And the TGI (CAKI-1 renal)?
Answer: 33.1 µM

Question: And the GI50 (CCRF-CEM leukemia)?
Answer: > 100 µM

Question: What about the TGI (CCRF-CEM leukemia) of the same compound?
Answer: > 100 µM

Question: And the GI50 (COLO 205 colon)?
Answer: 53.5 µM

Question: What about the TGI (COLO 205 colon) of the same compound?
Answer: > 100 µM

Question: And the GI50 (DU-145 prostate)?
Answer: 36.1 µM

Question: And the TGI (DU-145 prostate)?
Answer: > 100 µM

Question: And the GI50 (EKVX NSCLC)?
Answer: 31.4 µM

Question: What about the TGI (EKVX NSCLC) of the same compound?
Answer: > 100 µM

Question: What about the GI50 (HCC-2998 colon) of the same compound?
Answer: 53.1 µM

Question: And the TGI (HCC-2998 colon)?
Answer: > 100 µM

Question: What about the GI50 (HCT-116 colon) of the same compound?
Answer: 27.2 µM

Question: And the TGI (HCT-116 colon)?
Answer: 89.8 µM

Question: And the GI50 (HCT-15 colon)?
Answer: 84.8 µM

Question: And the TGI (HCT-15 colon)?
Answer: > 100 µM

Question: What about the GI50 (HL-60(TB) leukemia) of the same compound?
Answer: > 100 µM

Question: And the TGI (HL-60(TB) leukemia)?
Answer: > 100 µM

Question: And the GI50 (HOP-62 NSCLC)?
Answer: 15.3 µM

Question: What about the TGI (HOP-62 NSCLC) of the same compound?
Answer: 29.8 µM

Question: What about the GI50 (HOP-92 NSCLC) of the same compound?
Answer: 11.3 µM

Question: And the TGI (HOP-92 NSCLC)?
Answer: 26.8 µM

Question: And the GI50 (HS 578T breast)?
Answer: 18.5 µM

Question: And the TGI (HS 578T breast)?
Answer: 54.9 µM

Question: And the GI50 (HT29 colon)?
Answer: > 100 µM

Question: What about the TGI (HT29 colon) of the same compound?
Answer: > 100 µM

Question: And the GI50 (IGROV1 ovarian)?
Answer: 34.2 µM

Question: What about the TGI (IGROV1 ovarian) of the same compound?
Answer: > 100 µM

Question: And the GI50 (K-562 leukemia)?
Answer: > 100 µM

Question: What about the TGI (K-562 leukemia) of the same compound?
Answer: > 100 µM

Question: What about the GI50 (KM12 colon) of the same compound?
Answer: 88.4 µM

Question: And the TGI (KM12 colon)?
Answer: > 100 µM

Question: And the GI50 (LOX IMVI melanoma)?
Answer: 44.4 µM

Question: And the TGI (LOX IMVI melanoma)?
Answer: > 100 µM

Question: And the GI50 (M14 melanoma)?
Answer: 20.1 µM

Question: What about the TGI (M14 melanoma) of the same compound?
Answer: 54.9 µM

Question: What about the GI50 (MALME-3M melanoma) of the same compound?
Answer: 16.3 µM

Question: What about the TGI (MALME-3M melanoma) of the same compound?
Answer: 35.7 µM

Question: What about the GI50 (MCF7 breast) of the same compound?
Answer: 38.1 µM

Question: And the TGI (MCF7 breast)?
Answer: > 100 µM

Question: And the GI50 (MDA-MB-231 breast)?
Answer: 20.3 µM

Question: And the TGI (MDA-MB-231 breast)?
Answer: 45.5 µM

Question: What about the GI50 (MDA-MB-435) of the same compound?
Answer: 27.8 µM

Question: What about the TGI (MDA-MB-435) of the same compound?
Answer: > 100 µM

Question: What about the GI50 (MDA-MB-468 breast) of the same compound?
Answer: 23 µM

Question: What about the TGI (MDA-MB-468 breast) of the same compound?
Answer: 73.2 µM

Question: And the GI50 (MOLT-4 leukemia)?
Answer: > 100 µM

Question: What about the TGI (MOLT-4 leukemia) of the same compound?
Answer: > 100 µM

Question: And the GI50 (NCI-H226 lung)?
Answer: 16.1 µM

Question: And the TGI (NCI-H226 lung)?
Answer: 38.9 µM

Question: What about the GI50 (NCI-H23 lung) of the same compound?
Answer: 28.4 µM

Question: And the TGI (NCI-H23 lung)?
Answer: > 100 µM

Question: What about the GI50 (NCI-H460 lung) of the same compound?
Answer: 22.2 µM

Question: What about the TGI (NCI-H460 lung) of the same compound?
Answer: 56.9 µM

Question: What about the GI50 (NCI-H522 lung) of the same compound?
Answer: 68.2 µM

Question: What about the TGI (NCI-H522 lung) of the same compound?
Answer: > 100 µM

Question: And the GI50 (OVCAR-3 ovarian)?
Answer: 24.2 µM

Question: And the TGI (OVCAR-3 ovarian)?
Answer: 94.3 µM

Question: And the GI50 (OVCAR-4 ovarian)?
Answer: 17.2 µM

Question: And the TGI (OVCAR-4 ovarian)?
Answer: 38.9 µM

Question: What about the GI50 (OVCAR-5 ovarian) of the same compound?
Answer: 75.7 µM

Question: And the TGI (OVCAR-5 ovarian)?
Answer: > 100 µM

Question: What about the GI50 (OVCAR-8 ovarian) of the same compound?
Answer: 17.6 µM

Question: And the TGI (OVCAR-8 ovarian)?
Answer: 36.3 µM

Question: What about the GI50 (PC-3 prostate) of the same compound?
Answer: 41.1 µM

Question: What about the TGI (PC-3 prostate) of the same compound?
Answer: > 100 µM

Question: What about the GI50 (RPMI-8226 leukemia) of the same compound?
Answer: 76 µM

Question: What about the TGI (RPMI-8226 leukemia) of the same compound?
Answer: > 100 µM

Question: What about the GI50 (RXF 393 renal) of the same compound?
Answer: 13.5 µM

Question: What about the TGI (RXF 393 renal) of the same compound?
Answer: 28.8 µM

Question: And the GI50 (SF-268 CNS)?
Answer: 28.4 µM

Question: And the TGI (SF-268 CNS)?
Answer: > 100 µM

Question: What about the GI50 (SF-295 CNS) of the same compound?
Answer: 17.2 µM

Question: What about the TGI (SF-295 CNS) of the same compound?
Answer: 33.8 µM

Question: And the GI50 (SF-539 CNS)?
Answer: 20.9 µM

Question: And the TGI (SF-539 CNS)?
Answer: 46 µM

Question: And the GI50 (SK-MEL-2 melanoma)?
Answer: 14.9 µM

Question: And the TGI (SK-MEL-2 melanoma)?
Answer: 32.5 µM

Question: What about the GI50 (SK-MEL-28 melanoma) of the same compound?
Answer: 28.1 µM

Question: And the TGI (SK-MEL-28 melanoma)?
Answer: > 100 µM

Question: And the GI50 (SK-MEL-5 melanoma)?
Answer: 15.6 µM

Question: What about the TGI (SK-MEL-5 melanoma) of the same compound?
Answer: 46.6 µM

Question: What about the GI50 (SK-OV-3 ovarian) of the same compound?
Answer: 15.9 µM

Question: And the TGI (SK-OV-3 ovarian)?
Answer: 32.4 µM

Question: And the GI50 (SN12C renal)?
Answer: 31.7 µM

Question: What about the TGI (SN12C renal) of the same compound?
Answer: > 100 µM

Question: What about the GI50 (SNB-19 CNS) of the same compound?
Answer: 18.5 µM

Question: And the TGI (SNB-19 CNS)?
Answer: 42.5 µM

Question: And the GI50 (SNB-75 CNS)?
Answer: 10.2 µM

Question: What about the TGI (SNB-75 CNS) of the same compound?
Answer: 27.7 µM

Question: What about the GI50 (SR leukemia) of the same compound?
Answer: > 100 µM

Question: And the TGI (SR leukemia)?
Answer: > 100 µM

Question: What about the GI50 (SW-620 colon) of the same compound?
Answer: 42 µM

Question: What about the TGI (SW-620 colon) of the same compound?
Answer: > 100 µM

Question: What about the GI50 (T-47D breast) of the same compound?
Answer: 27.3 µM

Question: What about the TGI (T-47D breast) of the same compound?
Answer: > 100 µM

Question: And the GI50 (TK-10 renal)?
Answer: 18.3 µM

Question: And the TGI (TK-10 renal)?
Answer: 41.8 µM

Question: What about the GI50 (U251 CNS) of the same compound?
Answer: 17.6 µM

Question: And the TGI (U251 CNS)?
Answer: 38.5 µM

Question: What about the GI50 (UACC-257 melanoma) of the same compound?
Answer: 22.2 µM

Question: And the TGI (UACC-257 melanoma)?
Answer: 71.9 µM

Question: And the GI50 (UACC-62 melanoma)?
Answer: 27.9 µM

Question: And the TGI (UACC-62 melanoma)?
Answer: > 100 µM

Question: And the GI50 (UO-31 renal)?
Answer: 16 µM

Question: What about the TGI (UO-31 renal) of the same compound?
Answer: 34.9 µM
